# Measurements from US7205305B2, “Inhibitors of p38” (Vertex Pharmaceuticals Incorporated, priority 1996, dated 2007).
# Biological target: activated p38 (Homo sapiens, UniProt Q16539)
# Assay: Inhibition of phosphorylation of EGF receptor peptide ("kinase")
# Type: biochemical
# Details: inhibition of phosphorylation of EGF receptor peptide by activated p38
# Protocol: This assay was carried out in the presence of 10 mM MgCl2, 25 mM β-glycerophosphate, 10% glycerol and 100 mM HEPES buffer at pH 7.6. […] The stock solution was aliquotted into vials. A fixed volume of DMSO or inhibitor in DMSO (final concentration of DMSO in reaction was 5%) was introduced to each vial, mixed and incubated for 15 minutes at room temperature. EGF receptor peptide, […], a phosphoryl acceptor in p38-catalyzed kinase reaction (1), was added to each vial to a final concentration of 200 μM. The kinase reaction was initiated with ATP (100 μM) and the vials were incubated at 30° C. After 30 minutes, the reactions were quenched with equal volume of 10% trifluoroacetic acid (TFA).
# The phosphorylated peptide was quantified by HPLC analysis. Separation of phosphorylated peptide from the unphosphorylated peptide was achieved on a reverse phase column (Deltapak, 5 μm, C18 100D, part no. 011795) with a binary gradient of water and acteonitrile, each containing 0.1% TFA.
# activated p38, sequence (Q16539 whole entry): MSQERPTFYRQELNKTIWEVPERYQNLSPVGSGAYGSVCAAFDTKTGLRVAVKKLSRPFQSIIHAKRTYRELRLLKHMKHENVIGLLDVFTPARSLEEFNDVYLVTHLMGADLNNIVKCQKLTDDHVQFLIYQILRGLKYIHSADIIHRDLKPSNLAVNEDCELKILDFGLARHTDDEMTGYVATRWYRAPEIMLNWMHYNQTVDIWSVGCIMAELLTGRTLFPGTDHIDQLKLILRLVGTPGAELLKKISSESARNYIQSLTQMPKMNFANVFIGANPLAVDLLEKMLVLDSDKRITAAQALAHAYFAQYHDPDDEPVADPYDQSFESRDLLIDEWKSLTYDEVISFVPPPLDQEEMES
row,SMILES,IC50
1,COc1ccc(-c2c(=O)ncn3nc(Sc4ccccc4)ccc23)cc1 [Compound 10],≥ 1 µM
2,Nc1ccc(F)c(-c2c(=O)ncn3nc(Sc4ccc(F)cc4)ccc23)c1Cl [Compound 42],≥ 1 µM
3,O=c1ncn2nc(Sc3ccc(F)cc3Cl)ccc2c1-c1cc2c(cc1Cl)OCO2 [Compound 45],0.1 to 1 µM
4,CN(C)/C=N\c1ccc(-c2c(=O)ncn3nc(Sc4ccc(F)cc4)ccc23)c(Cl)c1 [Compound 50],≥ 1 µM
5,CC(=O)Nc1ccc(-c2c(=O)ncn3nc(Sc4ccc(F)cc4)ccc23)c(Cl)c1 [Compound 51],0.1 to 1 µM
6,O=C(CN1CCOCC1)Nc1ccc(-c2c(=O)ncn3nc(Sc4ccc(F)cc4)ccc23)c(Cl)c1 [Compound 52],0.1 to 1 µM
7,Nc1cc(F)c(F)cc1SC1=NN2CNC(=O)C(c3c(Cl)cccc3Cl)=C2C=C1 [Compound 119],0.1 to 1 µM
8,NC(=O)C(c1ccc(Sc2ccccc2)nn1)c1ccc(Cl)cc1Cl (centres unmarked) [Compound 203],≥ 1 µM
9,NC(=O)C(c1ccc(F)cc1)c1ccc(Sc2ccccc2)nn1 (centres unmarked) [Compound 204],≥ 1 µM
10,Cc1ccc(Sc2ccc(C(C(N)=O)c3ccc(Cl)cc3Cl)nn2)cc1 (centres unmarked) [Compound 205],≥ 1 µM
11,NC(=O)C(c1ccc(Sc2ccc(F)cc2Cl)nn1)c1ccc(N)cc1Cl (centres unmarked) [Compound 207],≥ 1 µM
12,NC(=O)C(c1cccc(-c2cccc([N+](=O)[O-])c2)n1)c1c(Cl)cccc1Cl (centres unmarked) [Compound 308],≥ 1 µM
13,CSc1ccc(-c2cccc(C(C(N)=O)c3c(Cl)cccc3Cl)n2)cc1 (centres unmarked) [Compound 314],≥ 1 µM
14,NC(=O)C(c1cccc(-c2ccc(C(=O)O)cc2)n1)c1c(Cl)cccc1Cl (centres unmarked) [Compound 315],≥ 1 µM
15,NC(=O)C(c1cccc(-c2ccc(C=O)cc2)n1)c1c(Cl)cccc1Cl (centres unmarked) [Compound 316],≥ 1 µM
16,NC(=O)C(c1cccc(-c2ccsc2)n1)c1c(Cl)cccc1Cl (centres unmarked) [Compound 318],0.1 to 1 µM
17,NC(=O)C(c1cccc(-c2ccc(C(F)(F)F)cc2)n1)c1c(Cl)cccc1Cl (centres unmarked) [Compound 319],≥ 1 µM
18,NC(=O)C(c1cccc(-c2cccc(C=O)c2)n1)c1c(Cl)cccc1Cl (centres unmarked) [Compound 321],≥ 1 µM
19,NC(=O)C(c1cccc(-c2ccc(Cl)s2)n1)c1c(Cl)cccc1Cl (centres unmarked) [Compound 326],≥ 1 µM
20,NC(=O)C(c1cccc(-c2ccccc2C=O)n1)c1c(Cl)cccc1Cl (centres unmarked) [Compound 327],0.1 to 1 µM
21,NC(=O)C(c1cccc(-c2cccc([N+](=O)[O-])c2)n1)c1c(F)cccc1Cl (centres unmarked) [Compound 328],≥ 1 µM
22,NC(=O)C(c1cccc(-c2ccc(Cl)cc2)n1)c1c(F)cccc1Cl (centres unmarked) [Compound 330],≥ 1 µM
23,Cc1ccc(-c2cccc(C(C(N)=O)c3c(F)cccc3Cl)n2)cc1 (centres unmarked) [Compound 331],≥ 1 µM

row,SMILES,IC50
1,CSc1ccc(-c2cccc(C(C(N)=O)c3c(F)cccc3Cl)n2)cc1 (centres unmarked) [Compound 334],≥ 1 µM
2,NC(=O)C(c1cccc(-c2ccc(C(=O)O)cc2)n1)c1c(F)cccc1Cl (centres unmarked) [Compound 336],≥ 1 µM
3,NC(=O)C(c1cccc(-c2ccc(C=O)cc2)n1)c1c(F)cccc1Cl (centres unmarked) [Compound 337],≥ 1 µM
4,NC(=O)C(c1cccc(-c2cccs2)n1)c1c(F)cccc1Cl (centres unmarked) [Compound 338],≥ 1 µM
5,NC(=O)C(c1cccc(-c2ccsc2)n1)c1c(F)cccc1Cl (centres unmarked) [Compound 339],≥ 1 µM
6,NC(=O)C(c1cccc(-c2ccc(C(F)(F)F)cc2)n1)c1c(F)cccc1Cl (centres unmarked) [Compound 340],≥ 1 µM
7,NC(=O)C(c1cccc(-c2cccc(C=O)c2)n1)c1c(F)cccc1Cl (centres unmarked) [Compound 342],≥ 1 µM
8,COc1cccc(-c2cccc(C(C(N)=O)c3c(F)cccc3Cl)n2)c1 (centres unmarked) [Compound 343],≥ 1 µM
9,NC(=O)C(c1cccc(-c2cccc(F)c2)n1)c1c(F)cccc1Cl (centres unmarked) [Compound 344],≥ 1 µM
10,COc1ccccc1-c1cccc(C(C(N)=O)c2c(F)cccc2Cl)n1 (centres unmarked) [Compound 345],≥ 1 µM
11,NC(=O)C(c1cccc(-c2ccc(Cl)s2)n1)c1c(F)cccc1Cl (centres unmarked) [Compound 347],≥ 1 µM
12,NC(=O)C(c1cccc(-c2ccccc2C=O)n1)c1c(F)cccc1Cl (centres unmarked) [Compound 348],≥ 1 µM
13,NC(=O)C(c1cccc(-c2ccc3ccccc3c2)n1)c1c(Cl)cccc1Cl (centres unmarked) [Compound 354],≥ 1 µM
14,NC(=O)C(c1cccc(-c2cc3ccccc3o2)n1)c1c(Cl)cccc1Cl (centres unmarked) [Compound 355],≥ 1 µM
15,NC(=O)C(c1cccc(-c2cc3ccccc3s2)n1)c1c(Cl)cccc1Cl (centres unmarked) [Compound 356],≥ 1 µM
16,NC(=O)C(c1cccc(-c2occc2C=O)n1)c1c(F)cccc1Cl (centres unmarked) [Compound 357],≥ 1 µM
17,NCCNCc1ccccc1-c1cccc(C(C(N)=O)c2c(Cl)cccc2Cl)n1 (centres unmarked) [Compound 359],≥ 1 µM
18,NC(=O)C(c1cccc(-c2ccccc2CNCC(O)CO)n1)c1c(Cl)cccc1Cl (centres unmarked) [Compound 360],≥ 1 µM
19,NC(=O)C(c1cccc(-c2ccccc2)n1)c1c(F)cccc1F (centres unmarked) [Compound 366],≥ 1 µM
20,NC(=O)C(c1cccc(-c2ccccc2C(F)(F)F)n1)c1c(Cl)cccc1Cl (centres unmarked) [Compound 374],0.1 to 1 µM
21,NC(=O)C(c1cccc(-c2ccccc2Cl)n1)c1c(Cl)cccc1Cl (centres unmarked) [Compound 375],≤ 0.1 µM
22,Cc1cccc(-c2cccc(C(C(N)=O)c3c(Cl)cccc3Cl)n2)c1C (centres unmarked) [Compound 376],≤ 0.1 µM
23,CCc1ccccc1-c1cccc(C(C(N)=O)c2c(Cl)cccc2Cl)n1 (centres unmarked) [Compound 377],≤ 0.1 µM

row,SMILES,IC50
1,NC(=O)C(c1cccc(-c2ccccc2CCO)n1)c1c(Cl)cccc1Cl (centres unmarked) [Compound 378],≤ 0.1 µM
2,NC(=O)C(c1cccc(-c2cccc(C(F)(F)F)c2)n1)c1c(Cl)cccc1Cl (centres unmarked) [Compound 379],≤ 0.1 µM
3,NC(=O)C(c1cccc(-c2cccc(CO)c2)n1)c1c(Cl)cccc1Cl (centres unmarked) [Compound 380],0.1 to 1 µM
4,Cc1cccc(C)c1C(C(N)=O)c1cccc(-c2ccccc2)n1 (centres unmarked) [Compound 381],0.1 to 1 µM
5,NC(=O)C(c1cccc(-c2cccc(Cl)c2Cl)n1)c1c(Cl)cccc1Cl (centres unmarked) [Compound 382],≤ 0.1 µM
6,NC(=O)C(c1cccc(-c2ccccc2F)n1)c1c(Cl)cccc1Cl (centres unmarked) [Compound 383],≤ 0.1 µM
7,NC(=O)C(c1cncc(-c2ccccc2)n1)c1c(Cl)cccc1Cl (centres unmarked) [Compound 384],0.1 to 1 µM
8,COCOc1ccccc1-c1cccc(C(C(N)=O)c2c(Cl)cccc2Cl)n1 (centres unmarked) [Compound 385],0.1 to 1 µM
9,NC(=O)C(c1cccc(-c2ccccc2O)n1)c1c(Cl)cccc1Cl (centres unmarked) [Compound 386],≥ 1 µM
10,NC(=O)C(c1cccc(-c2cc(C(F)(F)F)cc(C(F)(F)F)c2)n1)c1c(Cl)cccc1Cl (centres unmarked) [Compound 387],≥ 1 µM
11,NC(=O)C(c1cccc(-c2cc(F)c(F)c(F)c2)n1)c1c(Cl)cccc1Cl (centres unmarked) [Compound 388],≤ 0.1 µM
12,COCOc1cc(F)ccc1-c1cccc(C(C(N)=O)c2c(Cl)cccc2Cl)n1 (centres unmarked) [Compound 389],0.1 to 1 µM
13,NC(=O)C(c1cccc(-c2ccc(F)cc2O)n1)c1c(Cl)cccc1Cl (centres unmarked) [Compound 390],≥ 1 µM
14,NC(=O)C(c1cccc(-c2ccc(F)cc2C(F)(F)F)n1)c1c(Cl)cccc1Cl (centres unmarked) [Compound 391],0.1 to 1 µM
15,NC(=O)C(c1cccc(-c2cc(Cl)cc(Cl)c2)n1)c1c(Cl)cccc1Cl (centres unmarked) [Compound 392],0.1 to 1 µM
16,COCOCc1cc(F)ccc1-c1cccc(C(C(N)=O)c2c(Cl)cccc2Cl)n1 (centres unmarked) [Compound 393],0.1 to 1 µM
17,NC(=O)C(c1cccc(-c2ccc(F)cc2CO)n1)c1c(Cl)cccc1Cl (centres unmarked) [Compound 394],≤ 0.1 µM
18,Cc1cc(-c2cccc(C(C(N)=O)c3c(Cl)cccc3Cl)n2)ccc1F (centres unmarked) [Compound 395],≤ 0.1 µM
19,NC(=O)C(c1cccc(-c2ccc(F)cc2F)n1)c1c(Cl)cccc1Cl (centres unmarked) [Compound 396],≤ 0.1 µM
20,NC(=O)C(c1cccc(-c2ccccc2)n1)c1cc2c(cc1Cl)OCO2 (centres unmarked) [Compound 397],≥ 1 µM
21,NC(=O)C(c1cccc(-c2c(F)cc(F)cc2F)n1)c1c(Cl)cccc1Cl (centres unmarked) [Compound 399],≤ 0.1 µM
22,Cc1c(Cl)cccc1-c1cccc(C(C(N)=O)c2c(Cl)cccc2Cl)n1 (centres unmarked) [Compound 1301],≤ 0.1 µM
